6 compounds from patent US7795252B2, “Rapamycin analogues and the uses thereof in the treatment of neurological, proliferative, and inflammatory disorders” (Pfizer Inc., priority 2004, dated 2010) can be followed below.

Where two headings read alike, the source gives them in different places.

The test system of test [1] is Mesencephalic dopaminergic neuron cultures. Put plainly: dopaminergic (3H-dopamine) uptake assay after MPP+ exposure. The class given is cell-based. To be noted: rat E15 mesencephalic dopaminergic neurons, read-out: EC50 in dopaminergic uptake assays. The protocol:
Mesencephalic dopaminergic neuron cultures were prepared as described in Pong et al., J. Neurochem. 69: 986-994, 1997, which is incorporated herein by reference in its entirety. Embryonic day 15 (E15) rat fetuses were collected and dissected in ice-cold phosphate-buffered saline (PBS). The ventral piece of tissue compromising the mesencephalic dopaminergic region was dissected out. Dissected pieces of tissue were pooled together and transferred to an enzymatic dissociation medium containing 20 IU/mL papain in Earle's balanced salt solution (Worthington Biochemical, Freehold, N.J., USA) and incubated for 60 minutes at 37° C. After enzymatic dissociation, the papain solution was aspirated and the tissue mechanically triturated with a fire-polished glass Pasteur pipette in complete medium (equal volumes of minimum essential medium (MEM) and F-12 nutrient mixture (GibcoBRL) supplemented with 0.1 mg/mL apotransferrin and 2.5 μg/mL insulin) containing 2,000 IU/mL DNase and 10 mg/mL ovomucoid protease inhibitor.
For dopamine uptake experiments, single-cell suspensions in complete media were seeded on poly-L-ornithine and laminin coated 24-well plates. The cultures were maintained for seven days prior to experimentation. Cultures were pretreated with various concentrations of the compound for 24 hours, then exposed to 10 mM MPP+ for 1 hour. Following the 1 hour incubation, media was exchanged three times and fresh compound was added for an additional 48 hours.
After 48 hours growth of mesencephalic dopaminergic neuron cultures following MPP+ exposure, high-affinity 3H-dopamine uptake was performed using a modified method described by Prochiantz et al., Nature 293: 570-572, 1981, which is incorporated herein by reference. Cultures were washed with pre-warmed PBS containing 5.6 mM glucose and 1 mM ascorbic acid. Cultures were then incubated for 15 minutes at 37° C. with 50 nM 3H-dopamine (31 Ci/mmol, DuPont-NEN, Wilmington, Del., USA). The cultures were washed twice with buffer and lysed with 0.5 N NaOH. The lysate was transferred to a scintillation vial containing Ultima Gold scintillation cocktail and radioactivity was determined with a liquid scintillation counter. Alternatively, culture lysates can be washed twice with buffer, incubated for 2 hours at room temperature with Optiphase Supermix scintillation cocktail (Wallac Scintillation Products, Gaithersburg, Md., USA), and radioactivity measured with a liquid scintillation counter.

Test [2] concerns Spinal cord neuron cultures. Put plainly: spinal cord neuron assay. The class given is cell-based. As to conditions: rat E15 spinal cord neurons, compound for 72 h, read-out: EC50 in spinal cord neuron assays. The protocol: Spinal cord neuron cultures were prepared from embryonic day 15 (E15) rat embryos (Sprague-Dawley, Charles River Laboratories, Wilmington, Mass.). The embryos were collected and their spinal cords were removed in ice-cold phosphate-buffered saline (PBS) without Ca^2+ and Mg^2+. Dissected pieces of spinal cord tissue were pooled together and transferred to an enzymatic dissociation media containing 20 IU/mL papain in Earle's balanced salt solution (Worthington Biochemical, Freehold, N.J.) and incubated for 30 minutes at 37° C. After enzymatic dissociation, the papain solution was aspirated and the tissue mechanically triturated with a fire-polished Pasteur pipette in complete media [Neurobasal Medium with B-27 supplement (Gibco, Grand Island, N.Y.), 100 IU/mL penicillin, 100 μg/mL streptomycin, 3.3 μg/mL aphidicolin, 0.5 mM glutamate] containing 2,000 IU/mL DNase and 10-mg/mL ovomucoid protease inhibitor. Single-cell suspensions in complete media were plated on pre-coated poly-L-ornithine/laminin 96-well plates (Becton-Dickinson, Bedford, Mass.) at a density of 1.0×10^4 cells/well. Spinal cord neurons were maintained for 24 h then exposed to vehicle or various concentrations of compound for 72 h.

Test [3] relates to Dissociated cortical neuron cultures. Put plainly: cortical neuron assay (neurite outgrowth). The class given is cell-based. To be noted: Cortical neurone, rat E15 cortical neurons, compound for 72 hours, read-out: EC50 in cortical neuron assays. The protocol: Dissociated cortical neuron cultures were prepared as previously described (Pong et al., 2001). Briefly, embryonic day 15 rat fetuses were collected and dissected in ice-cold PBS. Dissected cortices were pooled together and transferred to an enzymatic dissociation medium containing papain. After 30 minutes, the tissue was mechanically triturated with a fire-polished glass Pasteur pipette. Single-cell suspensions in complete media were seeded on poly-L-ornithine and laminin coated 96-well plates. After 24 hours, cultures were treated with various concentrations of compound for 72 hours. The cultures were then fixed and stained with an anti-tubulin primary antibody (TUJ-1) and a fluorescent-tagged secondary antibody. Neurite outgrowth was determined by using the Enhanced Neurite Outgrowth (ENO) algorithm with the Cellomics ArrayScan and expressed as average neurite length or total neurite length per cell.

The subject of the next test is rats following pMCAO. Put plainly: Permanent occlusion of middle cerebral artery (pMCAO), behavioral deficit scoring. The class given is in vivo, rat. To be noted: I.V. administration (10 mg/kg) following pMCAO. The protocol: Adult male Wistar rats (Charles River, Wilmington, Mass.) 270-300 g were anesthetized with 3% isoflurane in 70% nitrous oxide and 30% oxygen through a nose cone. Temperature was maintained at 37° C. throughout the surgery using a heating lamp. Permanent occlusion of MCAO was induced by electro cauterization of the distal portion of the MCA (via a craniotomy) with a 90 min ligation of both carotid arteries to interrupt collateral circulation (Chen S T, Hsu C Y, Hogan E L, Maricq H Balentine J D (1986) A model of focal ischemic stroke in the rat: reproducible extensive cortical infarction. Stroke 17:738-743). Compound was administered 10 mg/kg i.v. 1.5, 5.5, 24, 48, and 72 hours post ischemia. Rats were kept for 21 day for long-term functional recovery evaluation. […] Rats extending both forelimbs toward the table were scored as 0, flexing contralateral limb toward the body and/or rotating the contralateral shoulder and limb medially were scored as 1, and rolling up the body toward the contralateral side and attempting to grasp the tail were scored as 2. […] Rats retracting hind limb back on bench top immediately were scored as 0, delaying (>2 seconds) were scored as 1, and unable to retract hind limb were score as 2. […]

In test [4] the test system is human CD4+ T cells. Put plainly: Anti-CD3/-CD28 stimulation and IL-2 re-stimulation assay. The class given is cell-based. The protocol:
(§1) In the following assays, human CD4+ T cells were purified by negative selection from peripheral blood lymphocytes using RosetteSep as per manufacture's instructions (StemCell Technologies, Inc. Vancouver, British Columbia).
Tosyl-activated magnetic microspheres (Dynal, Great Neck, N.Y.) were coated with anti-CD3 Ab (1 μg/10^7 microspheres), and anti-CD28Ab (0.5 μg/10^7 microspheres) as described in Blair et al. J. Immunol., 160:12, 1998. Murine IgG was used to saturate the binding capacity of the microspheres (total protein=5 μg/10^7 microspheres). Protein-coated microspheres were added to purified CD4+ T cells (2×10^6 cells/mL, ratio 1 bead: 1 cell) and activated for 72 hours in RPMI, 10% fetal calf serum, 2 mM glutamine media. Cells were harvested, washed, and cultured overnight in fresh media and re-stimulated with IL-2 as described in Bennett et al., J. Immunol. 170:711, 2003. Briefly, overnight rested cells were recounted, plated (10^5 cells/well) in flat-bottomed 96 well microtiter plates and stimulated with 1 ng/mL human IL-2 (R&D Systems, Minneapolis, Minn.) in the presence of increasing concentrations of compound. Seventy-two hours after culture re-stimulation, plates were pulsed with 1 μCi/well tritiated thymidine and incubated for a 6-16 hour period.

Test [5] deals with human CD4+ T cells. Put plainly: PMA/ionomycin activation assay. The class given is cell-based. As to conditions: CD4+ T cells stimulated with PMA and ionomycin, tritiated thymidine incorporation, read-out: EC50, inhibition of proliferation. The protocol: as §1
Proliferation of the compounds was determined using this assay. CD4+ T cells (5×10^5 cells/well) were plated in flat bottomed 96 well microtiter plates in RPMI, 10% fetal calf serum, 2 mM glutamine media and stimulated with PMA (10 ng/mL) and ionomycin (200 ng/mL) in the presence of increasing concentration of compound. Seventy-two hours after activation, 100 μL of culture media was collected for IL-2 determination, an additional 100 μL fresh media was added to each well and cultures labeled with tritiated thymidine (1 μCi/well) for 6 hours. Cultures were harvested and tritiated thymidine incorporation (count per minute, CPM) assessed using a Trilux (Perkin Elmer, Shelton, Conn.). IL-2 production was determined using an ELISA as per manufacture's instructions (R&D Systems, Minneapolis, Minn.).
A general note: Dividing cells build labelled thymidine or BrdU into new DNA.

Rapamycin phenyltriazolinedione: the EC50 in test [1] was under 1 µM.

In the case of `CO[C@H]1C[C@@H]2CC[C@@H](C)[C@@](O)(O2)C(=O)C(=O)N2CCCC[C@H]2C(=O)O[C@H]([C@H](C)C[C@@H]2CC[C@@H](O)[C@H](OC)C2)CC(=O)[C@H](C)/C=C(\C)[C@@H](O)[C@@H](OC)C(=O)[C@H](C)C[C@H](C)[C@@H]2CC[C@H](/C=C/1C)ON2c1ccccc1` [Example 2, 9,27-dihydroxy-3-{2-[4-hydroxy-3-methoxycyclohexyl]-1-methylethyl}-10,21-dimethoxy-6,8,12,14,20,26-hexamethyl-37-phenyl-4,9,10,12,13,14,15,16,17,18,21,22,23,24,25,26,27,32,33,34,34a-henicosahydro-3H-23,27-epoxy-18,15-(epoxyimino)pyrido[2,1-c][1,4]oxazacyclohentriacontine-1,5,11,28,29(6H,31H)-pentone], the EC50 in test [2] and in test [3] was under 1 µM throughout. Besides, the behavior deficit scoring entry in the test on rats following pMCAO is listed as “statistically significant reduction”.

As for `CO[C@H]1C[C@@H]2CC[C@@H](C)[C@@](O)(O2)C(=O)C(=O)N2CCCC[C@H]2C(=O)O[C@H]([C@H](C)C[C@@H]2CC[C@@H](O)[C@H](OC)C2)CC(=O)[C@H](C)/C=C(\C)[C@@H](O)[C@@H](OC)C(=O)[C@H](C)C[C@H](C)/C=C/C=C/C=C/1C` [rapamycin], the EC50 in test [3] and in test [1] (Neuron) was over 1 µM in each case.

Take `CO[C@H]1C[C@@H]2CC[C@@H](C)[C@@](O)(O2)C(=O)C(=O)N2CCCC[C@H]2C(=O)O[C@H]([C@H](C)C[C@@H]2CC[C@@H](OC(=O)C(C)(C)Cc3ccccn3)[C@H](OC)C2)CC(=O)[C@H](C)/C=C(\C)[C@@H](O)[C@@H](OC)C(=O)[C@H](C)C[C@H](C)C2C=CC(/C=C/1C)ON2c1ccccc1` [Example 6, 9,27-dihydroxy-3-{-2-[4-hydroxy-3-methoxycyclohexyl]-1-methylethyl}-10,21-dimethoxy-6,8,12,14,20,26-hexamethyl-37-phenyl-4,9,10,12,13,14,15,18,21,22,23,24,25,26,27,32,33,34,34a-nonadecahydro-3H-23,27-epoxy-18,15-(epoxyimino)pyrido[2,1-c][1,4]oxazacyclohentriacontine-1,5,11,28,29(6H,31H)-pentone ester with-2,2-dimethyl-3-(pyridin-2-yl)-propionic acid]: the EC50 in test [2] and in test [1] (Neuron) was under 1 µM in each case.

As to `CO[C@H]1C[C@@H]2CC[C@@H](C)[C@@](O)(O2)C(=O)C(=O)N2CCCC[C@H]2C(=O)O[C@H]([C@H](C)C[C@@H]2CC[C@@H](OC(=O)C(C)(CO)CO)[C@H](OC)C2)CC(=O)[C@H](C)/C=C(\C)[C@@H](O)[C@@H](OC)C(=O)[C@H](C)C[C@H](C)/C=C/C=C/C=C/1C` [CCI-779, reference compound], the EC50 in test [3] and in test [1] (Neuron) was over 1 µM in each case.

As for `CO[C@H]1C[C@@H]2CC[C@@H](C)[C@@](O)(O2)C(=O)C(=O)N2CCCC[C@H]2C(=O)O[C@H]([C@H](C)C[C@@H]2CC[C@@H](O)[C@H](OC)C2)CC(=O)[C@H](C)/C=C(\C)[C@@H](O)[C@@H](OC)C(=O)[C@H](C)C[C@H](C)C2C=CC(/C=C/1C)ON2c1c(Cl)cccc1Cl` [Example 3, 37-(2,6-dichlorophenyl)-9,27-dihydroxy-3-{2-[4-hydroxy-3-methoxycyclohexyl]-1-methylethyl}-10,21-dimethoxy-6,8,12,14,20,26-hexamethyl-4,9,10,12,13,14,15,18,21,22,23,24,25,26,27,32,33,34,34a-nonadecahydro-3H-23,27-epoxy-18,15-(epoxyimino)pyrido[2,1-c][1,4]oxazacyclohentriacontine-1,5,11,28,29(6H,31H)-pentone], the EC50 in test [2] was under 1 µM; in test [3] it was under 1 µM; with human CD4+ T cells [5], 0.2 to 4.9 µM. In addition, the half-inhibitory concentration (IC50) (commonly the midpoint of a concentration-inhibition curve) in the test with human CD4+ T cells [4] (CD4+ T cells activated with anti-CD3/anti-CD28, re-stimulated with 1 ng/mL human IL-2, read-out: IC50, inhibition of IL-2 production) was under 1 µM. Also, in the test with human CD4+ T cells [4] (CD4+ T cells, IL-2 re-stimulation), the “IL-2 production compared with rapamycin and CCI-779” value is recorded as “commensurate”.
